Measured values reported in PubChem BioAssay (NCI).
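Five compound concentrations were applied to cells in 96-well plates for 48 hours; endpoints were derived by simple linear interpolation of the resulting dose-response curve. GI50: concentration for 50% inhibition of growth. TGI marks complete inhibition of growth.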

How the values were obtained:
Test in all cases: NCI-60 cell line screen, 48 h
[1] = test system: UO-31 renal
[2] = test system: HS 578T breast
[3] = test system: HOP-62 NSCLC
[4] = test system: MOLT-4 leukemia
[5] = test system: SK-OV-3 ovarian
[6] = test system: SNB-75 CNS
[7] = test system: MDA-MB-231 breast
[8] = test system: HCT-15 colon
[9] = test system: OVCAR-4 ovarian
[10] = test system: HCT-116 colon
[11] = test system: IGROV1 ovarian
[12] = test system: KM12 colon
[13] = test system: T-47D breast
[14] = test system: HT29 colon
[15] = test system: TK-10 renal
[16] = test system: MALME-3M melanoma
[17] = test system: SF-295 CNS
[18] = test system: PC-3 prostate
[19] = test system: RXF 393 renal
[20] = test system: SN12C renal
[21] = test system: MCF7 breast
[22] = test system: SR leukemia
[23] = test system: 786-0 renal
[24] = test system: BT-549 breast
[25] = test system: HOP-92 NSCLC
[26] = test system: NCI-H23 lung
[27] = test system: MDA-MB-435
[28] = test system: DU-145 prostate
[29] = test system: M14 melanoma

CCc1ccc(C(=O)/C=C/C23c4ccccc4C(c4ccccc42)C2C(=O)NC(=O)C23)cc1 (configuration not stated)
TGI [1]: 5.55 µM
GI50 [2]: 2.24 µM
TGI [2]: 8.73 µM
GI50 [3]: 2.87 µM
TGI [3]: 8.82 µM
GI50 [4]: 2.23 µM
TGI [4]: 7.97 µM
GI50 [5]: 2.84 µM
TGI [5]: 7.54 µM
GI50 [6]: 1.67 µM
TGI [6]: 3.45 µM
GI50 [7]: 2.76 µM
TGI [7]: 8.33 µM
GI50 [8]: 1.79 µM
TGI [8]: 4.02 µM
GI50 [9]: 2.9 µM
TGI [9]: 11.9 µM
GI50 [10]: 1.58 µM
TGI [10]: 3.65 µM
GI50 [11]: 1.76 µM
TGI [11]: 4.1 µM
GI50 [12]: 1.82 µM
TGI [12]: 3.77 µM
GI50 [13]: 2.28 µM
TGI [13]: 6.4 µM
GI50 [14]: 2.2 µM
TGI [14]: 4.75 µM
GI50 [15]: 2.62 µM
TGI [15]: 6.47 µM
GI50 [16]: 1.82 µM
TGI [16]: 3.96 µM
GI50 [17]: 2.45 µM
TGI [17]: 5.73 µM
GI50 [18]: 1.73 µM
TGI [18]: 3.7 µM
GI50 [19]: 1.72 µM
TGI [19]: 3.24 µM
GI50 [20]: 1.76 µM
TGI [20]: 3.42 µM
GI50 [21]: 1.89 µM
TGI [21]: 5.62 µM
GI50 [22]: 1.37 µM
TGI [22]: 4.36 µM
GI50 [23]: 1.81 µM
TGI [23]: 3.54 µM
GI50 [24]: 1.73 µM
TGI [24]: 3.67 µM
GI50 [25]: 1.73 µM
TGI [25]: 3.5 µM
GI50 [26]: 2.09 µM
TGI [26]: 4.15 µM
GI50 [27]: 2.31 µM
TGI [27]: 5.53 µM
GI50 [28]: 1.66 µM
TGI [28]: 3.08 µM
GI50 [29]: 2.07 µM
TGI [29]: 4.74 µM
